Source: ChEMBL document CHEMBL5331077, “Combining pharmacophore models derived from DNA-encoded chemical libraries with structure-based exploration to predict Tankyrase 1 inhibitors” (Eur J Med Chem, 2023)

Tests used:
[1] = target: T1, Poly [ADP-ribose] polymerase tankyrase-1 (Homo sapiens, UniProt O95271); experiment: Inhibition of TNKS1 (unknown origin) using biotinylated NAD as substrate preincubated for 30 mins followed by substrate addition and measured after 1 hr by BioTek synergy 2 microplate reader analysis
T1 sequence (O95271 whole entry): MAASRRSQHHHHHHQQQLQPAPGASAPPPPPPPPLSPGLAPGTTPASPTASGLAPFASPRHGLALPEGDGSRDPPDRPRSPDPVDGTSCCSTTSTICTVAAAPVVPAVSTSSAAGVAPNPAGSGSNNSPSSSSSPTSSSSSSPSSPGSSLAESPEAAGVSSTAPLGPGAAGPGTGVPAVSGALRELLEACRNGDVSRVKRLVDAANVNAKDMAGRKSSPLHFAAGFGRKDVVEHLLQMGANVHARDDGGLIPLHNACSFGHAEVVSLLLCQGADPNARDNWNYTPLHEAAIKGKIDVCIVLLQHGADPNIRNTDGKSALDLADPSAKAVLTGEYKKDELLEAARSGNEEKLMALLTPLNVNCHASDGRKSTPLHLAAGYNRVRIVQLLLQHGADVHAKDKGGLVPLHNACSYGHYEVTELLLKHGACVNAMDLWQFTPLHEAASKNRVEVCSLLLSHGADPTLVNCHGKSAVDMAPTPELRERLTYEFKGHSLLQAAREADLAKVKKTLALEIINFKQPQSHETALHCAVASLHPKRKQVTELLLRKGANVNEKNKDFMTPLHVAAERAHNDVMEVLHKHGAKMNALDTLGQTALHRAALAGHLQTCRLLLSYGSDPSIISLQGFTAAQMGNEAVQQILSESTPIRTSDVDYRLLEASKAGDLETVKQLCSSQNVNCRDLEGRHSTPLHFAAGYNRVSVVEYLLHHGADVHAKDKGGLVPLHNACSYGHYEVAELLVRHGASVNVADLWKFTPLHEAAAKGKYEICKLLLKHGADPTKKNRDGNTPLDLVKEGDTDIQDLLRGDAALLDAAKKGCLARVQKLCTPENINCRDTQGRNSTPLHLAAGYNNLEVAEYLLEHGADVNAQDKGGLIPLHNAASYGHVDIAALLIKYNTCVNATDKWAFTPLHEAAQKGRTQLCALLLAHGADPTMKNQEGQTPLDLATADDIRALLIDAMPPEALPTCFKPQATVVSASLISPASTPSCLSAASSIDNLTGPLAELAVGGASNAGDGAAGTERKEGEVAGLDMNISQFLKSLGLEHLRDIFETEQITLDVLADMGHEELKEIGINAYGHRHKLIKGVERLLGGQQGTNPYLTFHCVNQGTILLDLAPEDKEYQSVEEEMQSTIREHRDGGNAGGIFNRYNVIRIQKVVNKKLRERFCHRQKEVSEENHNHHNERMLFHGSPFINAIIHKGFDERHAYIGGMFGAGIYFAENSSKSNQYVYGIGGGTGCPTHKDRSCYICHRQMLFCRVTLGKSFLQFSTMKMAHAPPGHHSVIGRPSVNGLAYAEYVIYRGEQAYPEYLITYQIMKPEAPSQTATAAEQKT

[2] = target: T2, Poly [ADP-ribose] polymerase tankyrase-1 (Homo sapiens) (UniProt O95271); experiment: Inhibition of TNKS1 (unknown origin) at 10 uM using biotinylated NAD as substrate preincubated for 30 mins followed by substrate addition and measured after 1 hr by BioTek synergy 2 microplate reader analysis relative to control; details: time 90.0 min
T2 sequence (whole entry): T1 sequence (O95271 whole entry)

[3] = target: T3, Poly [ADP-ribose] polymerase tankyrase-2 (Homo sapiens) (UniProt Q9H2K2); experiment: Inhibition of TNKS2 (unknown origin) at 50 nM relative to control
T3 sequence (whole entry): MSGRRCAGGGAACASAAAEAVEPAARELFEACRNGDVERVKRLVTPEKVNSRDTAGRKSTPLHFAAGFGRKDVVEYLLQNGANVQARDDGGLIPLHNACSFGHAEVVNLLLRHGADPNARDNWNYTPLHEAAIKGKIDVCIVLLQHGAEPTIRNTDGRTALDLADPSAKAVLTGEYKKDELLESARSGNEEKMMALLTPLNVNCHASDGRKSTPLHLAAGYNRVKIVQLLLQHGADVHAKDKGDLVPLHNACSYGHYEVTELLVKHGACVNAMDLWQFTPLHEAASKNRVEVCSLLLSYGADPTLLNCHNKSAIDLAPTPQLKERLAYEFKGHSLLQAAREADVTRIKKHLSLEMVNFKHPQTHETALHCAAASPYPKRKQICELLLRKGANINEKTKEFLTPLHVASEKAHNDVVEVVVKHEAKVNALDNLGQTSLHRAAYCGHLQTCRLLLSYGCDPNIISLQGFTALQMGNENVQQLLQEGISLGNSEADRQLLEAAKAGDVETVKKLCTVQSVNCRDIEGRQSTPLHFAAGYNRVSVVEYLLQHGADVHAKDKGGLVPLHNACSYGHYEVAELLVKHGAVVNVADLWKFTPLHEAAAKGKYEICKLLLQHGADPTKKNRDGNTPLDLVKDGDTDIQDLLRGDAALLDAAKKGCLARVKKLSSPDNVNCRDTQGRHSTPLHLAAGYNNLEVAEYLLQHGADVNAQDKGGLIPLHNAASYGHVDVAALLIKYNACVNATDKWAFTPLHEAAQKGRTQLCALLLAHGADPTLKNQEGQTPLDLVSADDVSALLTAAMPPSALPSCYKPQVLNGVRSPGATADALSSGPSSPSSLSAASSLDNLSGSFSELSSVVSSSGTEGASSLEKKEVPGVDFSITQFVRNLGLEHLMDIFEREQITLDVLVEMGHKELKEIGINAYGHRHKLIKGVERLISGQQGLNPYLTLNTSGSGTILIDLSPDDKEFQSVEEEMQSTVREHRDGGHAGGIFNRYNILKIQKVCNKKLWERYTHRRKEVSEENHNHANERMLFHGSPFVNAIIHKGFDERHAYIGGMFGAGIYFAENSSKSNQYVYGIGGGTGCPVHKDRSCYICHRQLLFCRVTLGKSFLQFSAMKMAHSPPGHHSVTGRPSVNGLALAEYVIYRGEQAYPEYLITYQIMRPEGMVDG

[4] = target: Poly [ADP-ribose] polymerase 1 (Homo sapiens) (UniProt P09874); experiment: Inhibition of human PARP1 at 0.5 uM relative to control
Chain of Poly [ADP-ribose] polymerase 1 (Homo sapiens) (P09874 whole entry): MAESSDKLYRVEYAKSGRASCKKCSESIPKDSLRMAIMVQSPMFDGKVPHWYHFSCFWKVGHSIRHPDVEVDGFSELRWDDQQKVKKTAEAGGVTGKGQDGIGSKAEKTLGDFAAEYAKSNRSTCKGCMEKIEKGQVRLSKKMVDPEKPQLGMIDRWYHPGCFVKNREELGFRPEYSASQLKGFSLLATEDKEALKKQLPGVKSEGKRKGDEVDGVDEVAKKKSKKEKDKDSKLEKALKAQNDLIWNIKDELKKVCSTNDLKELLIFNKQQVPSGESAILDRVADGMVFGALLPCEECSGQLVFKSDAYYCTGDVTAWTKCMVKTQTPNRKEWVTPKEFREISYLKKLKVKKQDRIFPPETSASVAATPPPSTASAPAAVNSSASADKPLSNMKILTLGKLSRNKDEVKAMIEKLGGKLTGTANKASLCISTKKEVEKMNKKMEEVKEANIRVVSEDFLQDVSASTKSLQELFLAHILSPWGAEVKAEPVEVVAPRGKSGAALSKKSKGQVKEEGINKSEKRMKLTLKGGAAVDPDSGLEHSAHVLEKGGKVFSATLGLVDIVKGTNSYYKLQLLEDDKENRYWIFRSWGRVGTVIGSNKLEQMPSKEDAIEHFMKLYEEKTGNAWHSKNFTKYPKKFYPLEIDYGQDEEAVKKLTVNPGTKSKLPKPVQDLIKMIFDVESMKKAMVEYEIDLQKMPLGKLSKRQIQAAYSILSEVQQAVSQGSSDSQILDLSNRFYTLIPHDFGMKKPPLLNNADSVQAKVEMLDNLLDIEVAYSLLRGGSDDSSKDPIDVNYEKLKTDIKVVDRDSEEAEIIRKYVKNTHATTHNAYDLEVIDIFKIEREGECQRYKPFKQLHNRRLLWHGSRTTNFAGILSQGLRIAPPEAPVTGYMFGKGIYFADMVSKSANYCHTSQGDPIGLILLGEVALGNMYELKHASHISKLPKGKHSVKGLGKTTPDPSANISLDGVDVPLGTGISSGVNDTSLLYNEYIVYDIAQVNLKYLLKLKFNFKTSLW

[5] = target: Poly [ADP-ribose] polymerase 2 (Homo sapiens) (UniProt Q9UGN5); experiment: Inhibition of human PARP2 at 0.5 uM relative to control
Chain of Poly [ADP-ribose] polymerase 2 (Homo sapiens) (Q9UGN5 whole entry): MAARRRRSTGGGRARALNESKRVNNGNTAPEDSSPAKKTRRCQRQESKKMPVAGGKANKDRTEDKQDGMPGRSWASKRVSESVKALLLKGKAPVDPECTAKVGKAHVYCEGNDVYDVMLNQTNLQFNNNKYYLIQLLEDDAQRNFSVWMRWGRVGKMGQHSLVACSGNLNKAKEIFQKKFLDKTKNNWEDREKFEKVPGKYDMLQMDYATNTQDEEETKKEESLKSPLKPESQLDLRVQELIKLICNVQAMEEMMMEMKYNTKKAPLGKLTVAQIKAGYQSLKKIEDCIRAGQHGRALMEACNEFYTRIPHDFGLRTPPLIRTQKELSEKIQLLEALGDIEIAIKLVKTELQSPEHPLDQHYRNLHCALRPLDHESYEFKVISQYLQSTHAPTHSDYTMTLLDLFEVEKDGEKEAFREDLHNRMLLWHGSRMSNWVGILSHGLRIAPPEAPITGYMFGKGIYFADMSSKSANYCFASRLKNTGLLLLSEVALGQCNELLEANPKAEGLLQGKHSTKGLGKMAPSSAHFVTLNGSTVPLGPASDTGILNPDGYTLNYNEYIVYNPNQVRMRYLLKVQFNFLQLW

[6] = target: Poly [ADP-ribose] polymerase 2 (Homo sapiens) (UniProt Q9UGN5); experiment: Inhibition of human PARP2 at 50 nM relative to control
[7] = target: Poly [ADP-ribose] polymerase 1 (Homo sapiens) (UniProt P09874); experiment: Inhibition of human PARP1 at 50 nM relative to control
[8] = target: T3, Poly [ADP-ribose] polymerase tankyrase-2 (Homo sapiens); experiment: Inhibition of TNKS2 (unknown origin) at 0.5 uM relative to control
[9] = target: T2, Poly [ADP-ribose] polymerase tankyrase-1 (Homo sapiens); experiment: Inhibition of TNKS1 (unknown origin) at 100 nM using biotinylated NAD as substrate preincubated for 30 mins followed by substrate addition and measured after 1 hr by BioTek synergy 2 microplate reader analysis relative to control; details: time 90.0 min

O=C(CCn1c(=O)[nH]c(=O)c2ccccc21)NCCNC(=O)c1cnc2ccccc2c1
IC50 [1]: 0.0083 µM

Cc1ccc2c(c1)NC(=O)C2CC(=O)NCCNC(=O)CCn1c(=O)[nH]c(=O)c2ccccc21 (stereo not drawn)
IC50 [1]: 0.075 µM

O[C@H](c1ccccc1)c1cn(C2CCN(Cc3cnc4ccccc4c3)CC2)nn1
inhibition [2]: 5%

CNC(=O)[C@H](CNC(=O)c1cccc(COc2ccccc2C(N)=O)c1)NC(=O)COc1cc(C)cc2oc(=O)c3c(c12)CCC3
IC50 [1]: 0.033 µM

O=C(NCCNC(=O)c1n[nH]c(=O)c2ccccc12)c1cccc(CN2C(=O)CNC2=O)c1
inhibition [3]: 49% | inhibition [4]: 47% | inhibition [5]: 53% | inhibition [6]: 3% | inhibition [7]: 17% | IC50 [1]: 0.069 µM | inhibition [8]: 93%

Cc1ccc(C)c(NC(=O)CSc2nnc(Cc3cc(=O)[nH]c(=O)[nH]3)n2-c2ccc(Cl)cc2)c1
inhibition [2]: 7% | inhibition [9]: 0%

O=C(NCc1ccc(-c2ccc3c(c2)CCCO3)cc1)c1nc2ccccc2c(=O)[nH]1
inhibition [2]: 74%

COc1ccc(C(N)=O)cc1NC(=O)c1cccc(-c2cnc3[nH]c(=O)n(C)c3c2)c1
inhibition [2]: 97% | inhibition [9]: 3%

CC(=O)N1CCC[C@H]1C(=O)NCCNC(=O)Cn1[nH]c(=O)c2ccccc2c1=O
IC50 [1]: 4.9 µM

O=C(Cc1n[nH]c(=O)c2ccccc12)OCC(=O)N1CCN(c2ccccn2)CC1
inhibition [2]: 100% | IC50 [1]: 0.022 µM | inhibition [9]: 78%

CC(=O)N1CCC[C@H]1C(=O)NCCNC(=O)CCn1c(=O)[nH]c(=O)c2ccccc21
IC50 [1]: 26 µM

O=C(Cn1cnc2ccccc2c1=O)N1CCC(c2nnc(-c3ccco3)s2)CC1
inhibition [2]: 0%

COc1ccc2c(c1)C(CC(=O)NCCNC(=O)CCn1c(=O)[nH]c(=O)c3ccccc31)CC2=O (stereo not drawn)
IC50 [1]: 0.015 µM

CNC(=O)[C@H](CNC(=O)Cn1[nH]c(=O)c2ccccc2c1=O)NC(=O)c1cnc(C)cn1
IC50 [1]: 0.14 µM

O=C(CCc1nc2ccccc2c(=O)[nH]1)Nc1ccc(-n2cnnn2)cc1
inhibition [2]: 67%

Cc1cnc(C(=O)NCCNC(=O)Cn2[nH]c(=O)c3ccccc3c2=O)cn1
inhibition [3]: 49% | inhibition [4]: 52% | inhibition [5]: 52% | inhibition [6]: 0% | inhibition [7]: 14% | IC50 [1]: 0.047 µM | inhibition [8]: 92%

O=C(Cc1n[nH]c(=O)c2ccccc12)Nc1ccc(Cc2nc3ccccc3s2)cc1
inhibition [2]: 35%
